# In patent US11213514B2, “Alpha-1-adrenergic receptor agonist therapy” (The Regents of the University of California, priority 2016, dated 2022):
# Columns and labels:
# [1] = tested on: wild type (WT) mice; test: Doxorubicin cardiotoxicity in wild type mice (survival, anatomy, conscious echocardiography, fibrosis)
# From the text: FIGS. 2A-2B. […] On Day 7 the mice underwent echocardiography prior to sacrifice. FIG. 2A. Fractional shortening, a measure of contractile function, with representative M-mode echocardiogram images. […] FIG. 2B. Heart sections from some of these mice (i.e. wild type mice) stained with Masson Trichrome. Fibrosis (weighted average collagen content) was quantified using Aperio ImageScope software.
# (§1) On Day 7, mice underwent echocardiography and were sacrificed by cervical dislocation after an overdose of isoflurane.
# Conscious transthoracic echocardiography was performed on loosely restrained mice in the McAllister Heart Institute Animal Models Core using a VisualSonics Vevo 2100 ultrasound system (VisualSonics, Inc., Toronto, Ontario, Canada). Two-dimensional and M-mode echocardiography were performed in the parasternal long-axis view at the level of the papillary muscle. Left ventricular systolic function was assessed by fractional shortening (% FS=[(LVEDD−LVESD)/LVEDD]×100). Reported values represent the average of at least five cardiac cycles per mouse. Sonographers and investigators were blinded to mouse treatment condition during image acquisition and analysis.
# Mice were heparinized and the heart was perfused with 10 mL PBS followed by 20 mL of 4% PFA/PBS through a 23 G butterfly needle, excised and placed in 4% PFA/PBS for 24 hours then transferred to 70% EtOH. Hearts were stained using standard methods in the UNC Histology Research Core. Fibrosis was analyzed in 3 Masson Trichrome (MT)-stained sections of 4 or 5 hearts from each treatment group. Slides were scanned using an Aperio ScanScope (Aperio Technologies, Vista, Calif.) and analyzed in Aperio ImageScope software. The Algorithm Positive Pixel Count v9 was used to measure collagen staining by MT using hue value (0.66) and hue width (0.1) The N positive/N total value was used to determine a weighted average collagen content (%) for each section.
# [2] = tested on: Complex I, ATP synthase and Cytochrome C oxidase subunit transcripts; test: RNAseq transcript abundance of mitochondrial gene sets in mouse heart; assay type: in vivo
# Experimental: FIGS. 3A-3E. […] FIG. 3A. […] FIG. 3B. […] FIG. 3C. […] FIG. 3E.
# An omnibus test of transcript abundance across all groups was performed with DESeq2 with groups encoded as categorical variables. One hundred-one genes were identified as significant by meeting the q<0.05 threshold (the set of genes with a 5% false discovery rate). Note, genes of potential interest can be found in Table 4.
# (FIG. 3B). […] (FIG. 3C).
# RNAseq was performed at the Carolina Center for Genome Sciences High Throughput Sequencing Facility. Libraries were prepared using an Illumina RNA TruSeq kit for total RNA. Single read sequencing (1×100) was performed on an Illumina HiSeq 2000 system. QC-passed reads were aligned to the mouse reference genome (mm9) using MapSplice.3 The alignment profile was determined by Picard Tools v1.64 (broadinstitute.github.io/picard/). Aligned reads were sorted and indexed using SAMtools and translated to transcriptome coordinates then filtered for indels, large inserts, and zero mapping quality using UBU v1.0 (github.com/mozack/ubu). Transcript abundance estimates for each sample were performed using RSEM, an expectation-maximization algorithm4 using the UCSC knownGene transcript and gene definitions. Raw RSEM read counts for all RNAseq samples were normalized to the overall upper quartile.5 Gene level differential expression testing was performed using the method of Love et al. (2014) implemented in the R package DESeq2. Gene set level tests were performed using the method of Efron and Tibshirani (2006) and gene sets as defined in the molecular signatures database, mSigdb.6 .GEO accession number is pending.
# [3] = tested on: ERK; test: ERK activation in mouse heart lysates with DOX, dabuzalgron and trametinib; assay type: in vivo
# From the text: FIGS. 4A-4F. […] The reaction was stopped immediately and lysates were blotted for total and phospho-ERK (pERK). FIG. 4A. […] FIG. 4B. […] FIG. 4C. […] The average pERK/ERK ratio for each experiment was derived from at least 2 individual wells and normalized to the pERK/ERK ratio for vehicle treated NRVMs. FIG. 4D and FIG. 4E. […] Heart lysates were blotted for pERK and ERK. Results were compared using one way ANOVA with Tukey post-test. FIG. 4F.
# as §1
# Homogenized tissue or cells were lysed in RIPA buffer with protease and phosphatase inhibitor (as above) and the lysate was passed through a Qiashredder. Equal protein abundance was assured with the Bradford assay (tissue lysates) or equal cell number (NRVMs). Samples were run for 2 hours at 140 v on ice on a Novex NuPAGE 4-12% Bis-Tris gel then transferred to a PVDF membrane at 90V for 1 hour on ice. Membranes were blocked in 5% milk at room temperature for 1 hour. We used Cell Signaling kit #9100 (pERK Thr202/Tyr204 1:250, ERK 1:1000, anti-rabbit HRP 1:1000). BID: (Santa Cruz, SC-11423); Cytochrome C: (Santa Cruz, SC-13560); AIF: (Santa Cruz, SC-13116); Caspase 8: (MBL international corporation, JM-3020-100); PARP: (Cell Signaling, #9532); Caspase 3: (Cell Signaling, #9665); Cleaved caspase 3: (Cell Signaling, #9664)
# [4] = tested on: neonatal rat ventricular myocytes (NRVMs); test: Mitochondrial membrane potential (JC-1) in NRVMs; assay type: cell-based
# Experimental: FIG. 6A-6C. […] FIG. 6A. Mitochondrial membrane potential was assessed using JC-1 and fluorescent intensity was quantified using a plate reader. Red indicates intact mitochondrial membrane potential; green indicates compromised mitochondrial membrane potential (relative). Lysates were blotted for selected regulators of apoptosis and mitochondrial cell death effectors. Representative Western blots and summary findings from 3 independent experiments with at least 2 wells per condition in each experiment are shown.
# JC-1 exists as a green fluorescent monomer at low mitochondrial membrane potential and a red fluorescent aggregate at high mitochondrial membrane potential. […] (FIGS. 6A-6C).
# Mitochondrial membrane potential: Mitochondrial membrane potential in NRVMs was determined by 5, 5′, 6, 6′-tetrachloro-1, 1′, 3, 3′-tetraethylbenzimidazolylcarbocyanine iodide (JC-1) reduction. Cells were stained with JC-1 (Mitoprobe, Cayman Chemical Company) according to the manufacturer's protocol. In brief, serum-starved NRVMs were treated with DOX or vehicle in the presence or absence of dabuzalgron. […] Cells were washed once with medium then analyzed by plate reader (CLARIOstar, BMG LABTECH, Germany). JC-1 green fluorescence was excited at 488 nm and emission was detected using a 530±40 nm filter. JC-1 red fluorescence was excited at 488 nm and emission was detected using a 613±20 nm filter.
# [5] = WT mice, dabuzalgron after DOX, Day 7
# [6] = wild type mice, Dox 20 mg/kg i.p. + dabuzalgron 20 μg/kg/d gavage 7 days
# [7] = wild type mice, Dox + 1240 20 μg/kg/d, Day 7 echocardiography
# [8] = DOX + dabuzalgron 10 μg/kg twice daily
# [9] = dabuzalgron in the absence of DOX
structure (smiles),measurement,setting,value
"COc1cccc2c1C(=O)c1c(O)c3c(c(O)c1C2=O)C[C@@](O)(C(=O)CO)C[C@@H]3O[C@H]1C[C@H](N)[C@H](O)[C@H](C)O1 [DOX, doxorubicin]","burden of fibrosis, Masson Trichrome","[1]; mouse, in vivo",increased significantly
same,"contractile function, conscious echocardiography","[1]; mouse, in vivo",decrease
same,7-day survival,"[1]; wild type mice, Dox 20 mg/kg i.p. + vehicle gavage 7 days",78%
same,7-day survival,"[1]; wild type mice, Dox 20 mg/kg i.p. + vehicle gavage 7 days, listed as Dox",78%
same,abundance of ATP synthase subunits (17 genes),"[2]; DOX 20 mg/kg, Day 7",decreased
same,abundance of Complex I subunits (42 genes),"[2]; DOX 20 mg/kg, Day 7",decreased
same,ERK activation in heart,[3]; mice treated with DOX,reduced
same,mitochondrial membrane potential (JC-1),[4]; DOX for 4 hours,profound loss
"Cc1c(OCC2=NCCN2)ccc(Cl)c1NS(C)(=O)=O [dabuzalgron, N-[6-chloro-3-(4,5-dihydro-1H-imidazol-2-ylmethoxy)-2-methylphenyl]methanesulfonamide]",effect of dabuzalgron on DOX-induced decrease in survival,"[1]; DOX 20 mg/kg i.p., dabuzalgron 10 μg/kg twice daily 7 days",not fully mitigated
same,effect on DOX-induced decrease in contractile function,"[1]; WT mice, Day 7, dabuzalgron after DOX",prevented
same,fractional shortening after DOX,[1]; [5],preserved
same,left ventricular end systolic volume after DOX,[1]; [5],preserved
same,effect on DOX-induced increase in fibrosis,"[1]; WT mouse heart sections, dabuzalgron after DOX",mitigated
same,echocardiographic parameters,"[1]; mouse, in vivo",no effect
same,7-day survival,[1]; [6],86%
same,Body Wt Day 7,[1]; [6],24.3 ± 0.6 g
same,HW/BW,[1]; [6],0.41 ± 0.02 %
same,HW/TL,[1]; [6],5.5 ± 0.3 mg/mm
same,Heart Wt,[1]; [6],97 ± 5 mg
same,Lung Wt/TL,[1]; [6],7.7 ± 0.4 mg/mm
same,FS (Fractional Shortening),[1]; [7],53 ± 1 %
same,HR (Heart Rate),[1]; [7],667 ± 10 beats per minute
same,LVs vol (Left Ventricular systolic volume),[1]; [7],5 µL
same,"PWd (Posterior Wall, diastole)",[1]; [7],0.9 mm
same,expression of ATP synthase subunits after DOX,[2]; [8],restored
same,expression of Complex I subunits after DOX,[2]; [8],restored
same,expression of Cytochrome C oxidase subunits (25 genes) after DOX,[2]; [8],increased
same,ATP synthase subunit abundance,[2]; [9],no significant effect
same,Complex I subunit abundance,[2]; [9],increased
same,Cytochrome C (oxidase subunit) abundance,[2]; [9],no significant effect
same,effect on DOX-induced reduction of ERK activation,"[3]; mice, DOX + dabuzalgron",partially mitigated
same,ERK activation after trametinib,"[3]; mice, DOX, dabuzalgron and trametinib",could not restore
same,effect on DOX-induced loss of mitochondrial membrane potential,[4]; DOX for 4 hours with dabuzalgron 10 μM,partially rescued
